Experimental data taken from Sander's compilation of Henry's law constants.
Values belong to the molecule of their own block, whether it stands above or below them.

Assay: Henry solubility constant Hcp at 298.15 K (mol/(m3 Pa))
[1] = reference: Fenclová et al. (2014)
[2] = reference: Buttery et al. (1971)
[3] = reference: Bakierowska and Trzeszczyński (2003)
[4] = reference: Butler and Ramchandani (1935)
[5] = reference: Christie and Crisp (1967)
[6] = reference: Cetin and Odabasi (2005)
[7] = reference: Murphy et al. (1983a)
[8] = reference: Jantunen and Bidleman (2006)
[9] = reference: Chang and Criddle (1995)
[10] = reference: Fichan et al. (1999)

Compound: N#Cc1c(Cl)c(Cl)c(Cl)c(C#N)c1Cl [2,4,5,6-tetrachloro-1,3-dicyanobenzene]
Henry solubility constant Hcp (reference: Kawamoto and Urano (1989)): 50

Henry solubility constant Hcp (reference: Copolovici and Niinemets (2007)): 0.38
Henry solubility constant Hcp (reference: Leng et al. (2013)): 0.2
Compound: C=CC(C)(O)CCC=C(C)C (configuration not stated) [3,7-dimethyl-1,6-octadien-3-ol]

Henry solubility constant Hcp (reference: Brockbank et al. (2013)): 0.0027
Compound: Cc1ccc(Cl)cc1Cl [2,4-dichloro-1-methylbenzene]

Henry solubility constant Hcp (reference: Sarraute et al. (2006)): 0.0071
Compound: ClCCCCCCCCCl [1,8-dichlorooctane]

Henry solubility constant Hcp (reference: Aprea et al. (2007)): 0.024
Henry solubility constant Hcp [1]: 0.029
Henry solubility constant Hcp (reference: Landy et al. (1995)): 0.024
Henry solubility constant Hcp (reference: Landy et al. (1996)): 0.04
Henry solubility constant Hcp (reference: Souchon et al. (2004)): 0.026
Compound: CCCC(=O)OCC [ethyl butanoate]

Compound: Clc1ccc2c(c1)Oc1ccc(Cl)cc1O2 [2,7-dichlorodibenzo-p-dioxin]
Henry solubility constant Hcp (reference: Santl et al. (1994)): 0.17

Henry solubility constant Hcp [2]: 4.5
Compound: Cc1cnccn1 [2-methylpyrazine]

Compound: c1cc2c3c(cccc3c1)CC2 [acenaphthene]
Henry solubility constant Hcp (reference: Mackay et al. (1979)): 0.068
Henry solubility constant Hcp (reference: Warner et al. (1980)): 0.041

Compound: CCCCO[N+](=O)[O-] [1-butyl nitrate]
Henry solubility constant Hcp (reference: Hauff et al. (1998)): 0.0063
Henry solubility constant Hcp (reference: Luke et al. (1989)): 0.01

Compound: C#CCBr [3-bromo-1-propyne]
Henry solubility constant Hcp (reference: Yates and Gan (1998)): 0.0088

Henry solubility constant Hcp [2]: 0.2
Compound: COc1nccnc1CC(C)C [2-isobutyl-3-methoxypyrazine]

Henry solubility constant Hcp (reference: Alaee et al. (1996)): 0.2
Henry solubility constant Hcp (reference: Bamford et al. (1999b)): 0.15
Henry solubility constant Hcp (reference: Reza and Trejo (2004)): 0.23
Henry solubility constant Hcp (reference: Southworth (1979)): 0.15
Henry solubility constant Hcp (reference: Webster et al. (1985)): 0.27
Compound: c1ccc2cc3ccccc3cc2c1 [anthracene]

Henry solubility constant Hcp [3]: 0.0012
Compound: C/C=C\CCl [(Z)-1-chloro-2-butene]

Compound: CC(=O)O[O] [peroxyacetyl radical]
Henry solubility constant Hcp (reference: Villalta et al. (1996)): < 0.00099

Compound: OCC(O)CO [1,2,3-propanetriol]
Henry solubility constant Hcp [4]: 580

Henry solubility constant Hcp (reference: Lewis et al. (1987)): 9.4e-05
Henry solubility constant Hcp (reference: Ramstedt (1911)): 0.0001
Compound: [Rn] [radon]

Compound: CNC [dimethylamine]
Henry solubility constant Hcp [5]: 0.56

Compound: ClC1C(Cl)C(Cl)C(Cl)C(Cl)C1Cl (stereo not drawn) [β-1,2,3,4,5,6-hexachlorocyclohexane]
Henry solubility constant Hcp (reference: Sahsuvar et al. (2003)): 28

Henry solubility constant Hcp (reference: Allen et al. (1998)): 0.97
Henry solubility constant Hcp (reference: Betterton (1991)): 1.1
Compound: CC(=O)c1ccccc1 [1-phenylethanone]

Henry solubility constant Hcp (reference: Copolovici and Niinemets (2005)): 0.00038
Compound: CC1=CCC(=C(C)C)CC1 [1-methyl-4-(1-methylethylidene)-cyclohexene]

Compound: Brc1ccc(Oc2cc(Br)c(Br)cc2Br)c(Br)c1 [2,2',4,4',5-pentabromodiphenyl ether]
Henry solubility constant Hcp [6]: 1.5
Henry solubility constant Hcp (reference: Charles and Destaillats (2005)): 0.27
Henry solubility constant Hcp (reference: Long et al. (2017)): 1.5

Compound: Clc1ccc(-c2cc(Cl)c(Cl)c(Cl)c2Cl)c(Cl)c1 [2,2',3,4,4',5-hexachlorobiphenyl]
Henry solubility constant Hcp [7]: 0.021

Henry solubility constant Hcp [7]: 0.066
Henry solubility constant Hcp (reference: Westcott et al. (1981)): 0.025
Compound: Clc1ccc(-c2ccccc2Cl)cc1Cl [2,3',4'-trichlorobiphenyl]

Compound: ClC1=C(Cl)C2(Cl)C3C(Cl)C(Cl)C(Cl)C3C1(Cl)C2(Cl)Cl (stereo not drawn) [trans-nonachlor]
Henry solubility constant Hcp [8]: 0.031

Henry solubility constant Hcp (reference: Dohányosová et al. (2004)): 6.9e-05
Compound: C1CCCCCCC1 [cyclooctane]

Compound: FC(F)(F)C(Cl)Cl [2,2-dichloro-1,1,1-trifluoroethane]
Henry solubility constant Hcp [9]: 0.00032
Henry solubility constant Hcp (reference: Kutsuna (2013)): 0.00023

Compound: C=CC=C [1,3-butadiene]
Henry solubility constant Hcp (reference: Ross and Hudson (1957)): 0.00014

Henry solubility constant Hcp (reference: Wu and Chang (2011)): 0.00013
Compound: OCCC(F)(F)C(F)(F)C(F)(F)C(F)(F)C(F)(F)C(F)(F)C(F)(F)C(F)(F)C(F)(F)C(F)(F)F [1,1,2,2-tetrahydroperfluoro dodecanol]

Compound: ClC1=C(Cl)[C@]2(Cl)[C@@H]3[C@@H](Cl)[C@@H](Cl)C[C@@H]3[C@@]1(Cl)C2(Cl)Cl [cis-chlordane]
Henry solubility constant Hcp [8]: 0.037

Compound: Clc1cccc(-c2ccccc2Cl)c1 [2,3'-dichlorobiphenyl]
Henry solubility constant Hcp [7]: 0.047

Compound: Brc1ccc(Br)c(Br)c1 [1,2,4-tribromobenzene]
Henry solubility constant Hcp (reference: Kuramochi et al. (2004)): 0.031

Henry solubility constant Hcp (reference: Druaux et al. (1998)): 0.25
Henry solubility constant Hcp (reference: Roberts and Pollien (1997)): 0.13
Henry solubility constant Hcp (reference: Wu et al. (2022a)): 0.19
Compound: C=CC(O)CCCCC (configuration not stated) [1-octen-3-ol]

Henry solubility constant Hcp (reference: Lei et al. (2007)): 0.19
Henry solubility constant Hcp (reference: Shunthirasingham et al. (2013)): 0.21
Henry solubility constant Hcp (reference: Wu et al. (2022a)): 0.17
Compound: CCCCCCCCO [1-octanol]

Henry solubility constant Hcp [3]: 0.00023
Compound: C1=CCCC1 [cyclopentene]

Compound: N#Cc1c(Cl)cccc1Cl [2,6-dichlorobenzenenitrile]
Henry solubility constant Hcp (reference: Schoene and Steinhanses (1985)): 0.48

Henry solubility constant Hcp (reference: Breiter et al. (1998)): 0.038
Henry solubility constant Hcp (reference: Reyes-Pérez et al. (2008)): 0.56
Compound: CCCN(CCC)C(=O)SCC [S-ethyl dipropylthiocarbamate]

Henry solubility constant Hcp (reference: Khan and Brimblecombe (1992)): 21
Henry solubility constant Hcp (reference: Khan et al. (1995)): 23
Henry solubility constant Hcp (reference: Kim and Kim (2016)): 24
Henry solubility constant Hcp (reference: von Hartungen et al. (2004)): 12
Compound: CCCCC(=O)O [pentanoic acid]

Compound: FC(F)Cl [chlorodifluoromethane]
Henry solubility constant Hcp (reference: Boggs and Buck (1958)): 0.00035
Henry solubility constant Hcp [9]: 0.00017
Henry solubility constant Hcp (reference: Maaßen (1995)): 0.00035
Henry solubility constant Hcp (reference: Reichl (1995)): 0.00035
Henry solubility constant Hcp (reference: Zheng et al. (1997)): 0.00034

Henry solubility constant Hcp (reference: Ondo and Dohnal (2007)): 0.43
Compound: C1COCO1 [1,3-dioxolane]

Henry solubility constant Hcp [10]: 1.2
Compound: CC(=O)/C=C/C1=C(C)CCCC1(C)C [β-ionone]

Compound: CN(CCO)CCO [N-methyldiethanolamine]
Henry solubility constant Hcp (reference: Kim et al. (2008)): 400000
Henry solubility constant Hcp (reference: Nguyen (2013)): 3900

Compound: CCCCN [1-butanamine]
Henry solubility constant Hcp [4]: 0.65
Henry solubility constant Hcp [5]: 0.56

Compound: C=CC(=C)C [2-methyl-1,3-butadiene]
Henry solubility constant Hcp (reference: Leng et al. (2013)): 0.00034
Henry solubility constant Hcp (reference: Schuhfried et al. (2015)): 0.0003

Compound: O=C(O)C(Cl)Cl [dichloroethanoic acid]
Henry solubility constant Hcp (reference: Bowden et al. (1998a)): 1200

Compound: CCOC(=O)C(F)(F)F [trifluoroethanoic acid, ethyl ester]
Henry solubility constant Hcp (reference: Kutsuna and Kaneyasu (2021)): 0.00071
Henry solubility constant Hcp (reference: Kutsuna et al. (2005)): 0.00089

Henry solubility constant Hcp (reference: Hwang et al. (2010)): 0.0031
Compound: C=COCCC [propyl vinyl ether]

Henry solubility constant Hcp [2]: 0.13
Compound: CCCCC/C=C/C=O [(E)-2-octenal]

Compound: O=[N+]([O-])c1ccccc1O [2-nitrophenol]
Henry solubility constant Hcp (reference: Guo and Brimblecombe (2007)): 1.4
Henry solubility constant Hcp (reference: Harrison et al. (2002)): 0.83
Henry solubility constant Hcp (reference: Müller and Heal (2001)): 0.89

Compound: Brc1c(Br)c(Br)c(Oc2c(Br)c(Br)c(Br)c(Br)c2Br)c(Br)c1Br [decabromodiphenyl ether]
Henry solubility constant Hcp [6]: 18
Henry solubility constant Hcp (reference: Long et al. (2017)): 18

Compound: Clc1cc(Cl)c(Cl)cc1Cl [1,2,4,5-tetrachlorobenzene]
Henry solubility constant Hcp (reference: McPhedran et al. (2013)): 0.018

Henry solubility constant Hcp [10]: 0.023
Compound: CC1(C)C2CC3OC3(C)C1C2 (configuration not stated) [2,7,7-trimethyl-3-oxatricyclo[4.1.1.0(2,4)]octane]

Compound: CC(F)(F)Cl [1-chloro-1,1-difluoroethane]
Henry solubility constant Hcp [9]: 0.00015
Henry solubility constant Hcp (reference: Kutsuna (2013)): 0.00015
Henry solubility constant Hcp (reference: Maaßen (1995)): 0.00014
Henry solubility constant Hcp (reference: Reichl (1995)): 0.00014

Henry solubility constant Hcp (reference: Haimi et al. (2006)): 0.00077
Compound: CCOC(C)(C)CC(C)(C)C [2-ethoxy-2,4,4-trimethylpentane]

Compound: CN=C=O [methyl isocyanate]
Henry solubility constant Hcp (reference: Roberts and Liu (2019)): 0.013

Henry solubility constant Hcp (reference: Karl et al. (2008)): 50
Compound: CC/C=C/C[C@@H]1C(=O)CC[C@H]1CC(=O)OC [methyl jasmonate]

Compound: CC(=O)C(F)(F)F [1,1,1-trifluoro-2-propanone]
Henry solubility constant Hcp (reference: Betterton (1991)): 1.4

Compound: ClCC(Cl)CCl [1,2,3-trichloropropane]
Henry solubility constant Hcp (reference: Tancrède and Yanagisawa (1990)): 0.044

Henry solubility constant Hcp [5]: 0.37
Compound: CCCCCCN [1-hexanamine]

Henry solubility constant Hcp (reference: Ömür-Özbek and Dietrich (2005)): 0.089
Compound: CC1(C)[C@@H]2CC[C@@]1(C)[C@](C)(O)C2 [2-methylisoborneol]

Compound: CCCCOCCOC(C)=O [2-butoxyethyl ethanoate]
Henry solubility constant Hcp (reference: Kim et al. (2000)): 1.8

Compound: FC(F)(F)Cl [chlorotrifluoromethane]
Henry solubility constant Hcp (reference: Park et al. (1982)): 7.8e-06
Henry solubility constant Hcp (reference: Reichl (1995)): 8.9e-06
Henry solubility constant Hcp (reference: Scharlin and Battino (1994)): 9e-06
Henry solubility constant Hcp (reference: Scharlin and Battino (1995)): 9e-06

Henry solubility constant Hcp (reference: Nguyen (2013)): 1800
Compound: C1CN(CCOCCN2CCOCC2)CCO1 [dimorpholinodiethyl ether]

Compound: CCCCOC(C)=O [butyl ethanoate]
Henry solubility constant Hcp [1]: 0.035
Henry solubility constant Hcp (reference: Ioffe et al. (1984)): 0.035
Henry solubility constant Hcp (reference: Kieckbusch and King (1979b)): 0.035
